Test results reported in patent publication US20140235877A1, “COMPOUNDS, METHODS OF PREPARATION AND USE THEREOF FOR TREATING CANCER” (Hong Kong Baptist University, priority 2013, published 2014).
Where two headings read alike, the source gives them in different places.

How the values were obtained:
MDA-MB-231 = test: MTT cell viability assay, MDA-MB-231; type: cell-based; details: Homo sapiens; MDA-MB-231, MTT, 72 h; read-out: Cytotoxicity Data IC50
From the text: (§1) Curcumin and paclitaxel are used as the positive control.

AGS = test: MTT cell viability assay, AGS; details: Homo sapiens, 72 h, read-out: Cytotoxicity Data IC50 (μM)
Method: (§2) All test samples are dissolved in dimethyl sulfoxide (DMSO) to make stock solutions and further diluted in culture medium upon assay. Human cancer cell lines including U87, MDA-MB-231, AGS and HepG2 are cultured in RPMI 1640 or DMEM or DMEM/F12 medium, containing 10% fetal bovine serum. All cell lines are maintained at 37° C. in a humidified environment containing 5% CO2. To determine the effects of the compounds on cell viability, cell number is quantified using a standard colorimetric MTT assay. Cells are placed in a 96-well plate (5×10^3 cells/well) and allowed to attach overnight. Cells are treated with 5, 10, 20, 40 μM of each compound in culture medium for 72 h, respectively. Then, culture media are added with 20 μL of MTT (5 mg/mL stock in PBS) per well and incubated for 4 h at 37° C. Finally, culture media are discarded and 150 μL of DMSO is added to each well to dissolve the purple formazan crystals. Absorbance of the solution is measured using microplate reader spectrophotometer (Bio-Rad Laboratories, Inc., Hercules, Calif.), at a wavelength of 490 nm. Absorbance of untreated cells in medium (negative control) is 100%. Curcumin and paclitaxel are used as the positive control.

U87 = test: MTT cell viability assay, U87; details: Homo sapiens, U-87 MG, 72 h, read-out: Cytotoxicity Data IC50 (μM)
Method: as §2

HepG2 = test: MTT cell viability assay, HepG2; type: cell-based; details: Homo sapiens; for IC50: HepG2, MTT
From the text: as §1

[1] = test system: normal liver cells immortalized MIHA; test: MTT cytotoxicity assay on normal liver cells immortalized MIHA; type: cell-based, human; details: for Survival rate (%): MTT, 72 h
Method: The cytotoxicity of Compound A to normal liver cells immortalized MIHA is tested with MTT assay.
For MTT assay, 10 μL MTT solution is added into each well of a 96-well plate. After 2 h incubation at 37° C., 100 μL 10% SDS solution with 10 mM HCl is added to dissolve the purple crystals. After 24 h incubation, the optical density (OD) readings at 595 nm are measured using a Perkin-Elmer Victor plate reader. The values of IC50 are determined using the method described in the cited literatures with some modifications. To determine the IC50 value of a compound in a cell line, the growth inhibitory effect of Compound A at different concentrations is measured by MTT assay. For each tested concentration, 3000 cells suspended in 100 μL culture medium are seeded in each well of a 96-well plate. The well containing 100 μL culture medium without cells is used as a blank. After an overnight culture, Compound A at the designed concentration is added. The OD values of the control group at 0 h (C0) and 72 h (C72) together with the compound treated groups at 72 h (T72) from the MTT assay are measured using the Perkin-Elmer Victor plate reader. The survival rates are calculated using the formula (T72−C0)/(C72−C0)×100%. The inhibition rates are calculated using the following formula [1−(T72−C0)/(C72−C0)]×100% and plotted against logarithmic concentrations by sigmoidal fit. IC50 is defined as the concentration of a compound inhibiting 50% of cell growth. Each IC50 test is performed in triplicate and repeated at least three times.

**Q.** What does the source list for `COc1cc(/C=C/C(=O)CC(=O)/C=C/c2ccc(O)c(OC)c2)ccc1O` [Curcumin]?
**A.** IC50 (MDA-MB-231): 3.76 µM; IC50 (AGS): 4.38 µM; IC50 (U87): 20.8 µM

**Q.** With `COc1c(O)c(O)c2c(=O)c3c(CC=C(C)C)c(CC=C(C)C)c(O)c(O)c3oc2c1CC=C(C)C` [Compound A, 1,2,5,6-tetrahydroxy-3-methoxy-4,7,8-tri(3-methylbut-2-enyl)-xanthone] as the compound, how does the IC50 (HepG2; read-out: IC50 on HepG2 cells growth) read?
**A.** The IC50 was 5.3 µg/mL.

**Q.** And the inhibition at 0.8 µg/mL (HepG2; HepG2, compound A 0.8 μg/mL, MTT, read-out: Inhibition rate %)?
**A.** Its inhibition at 0.8 µg/mL is 7.79%.

**Q.** What about the inhibition at 1.6 µg/mL (HepG2; HepG2, compound A 1.6 μg/mL, MTT, read-out: Inhibition rate %) of the same compound?
**A.** Its inhibition at 1.6 µg/mL is 8.16%.

**Q.** And the inhibition at 3.125 µg/mL (HepG2; HepG2, compound A 3.125 μg/mL, MTT, read-out: Inhibition rate %)?
**A.** Its inhibition at 3.125 µg/mL is 15%.

**Q.** And the inhibition at 6.25 µg/mL (HepG2; HepG2, compound A 6.25 μg/mL, MTT, read-out: Inhibition rate %)?
**A.** The inhibition at 6.25 µg/mL was 59.2%.

**Q.** What about the inhibition at 12.5 µg/mL (HepG2; HepG2, compound A 12.5 μg/mL, MTT, read-out: Inhibition rate %) of the same compound?
**A.** Its inhibition at 12.5 µg/mL is 75.6%.

**Q.** What about the inhibition at 25 µg/mL (HepG2; HepG2, compound A 25 μg/mL, MTT, read-out: Inhibition rate %) of the same compound?
**A.** Its inhibition at 25 µg/mL is 76.6%.

**Q.** What about the inhibition at 50 µg/mL (HepG2; HepG2, compound A 50 μg/mL, MTT, read-out: Inhibition rate %) of the same compound?
**A.** Its inhibition at 50 µg/mL is 69.3%.

**Q.** And the inhibition at 100 µg/mL (HepG2; HepG2, compound A 100 μg/mL, MTT, read-out: Inhibition rate %)?
**A.** The inhibition at 100 µg/mL was 74.3%.

**Q.** What about the “Survival rate (%)” value ([1]; compound A 5 μg/mL) of the same compound?
**A.** Its value is 101.7881%.

**Q.** And the “Survival rate (%)” value ([1]; compound A 10 μg/mL)?
**A.** Its value is 85.45%.

**Q.** What about the “Survival rate (%)” value ([1]; compound A 20 μg/mL) of the same compound?
**A.** The value was 85.89%.

**Q.** And the “Survival rate (%)” value ([1]; compound A 40 μg/mL)?
**A.** The value was 68.01%.

**Q.** What about the “half toxic concentration TC50” value ([1]; from survival rate curve (FIG. 1)) of the same compound?
**A.** The value was greater than 40 µg/mL.

**Q.** And the “toxicity on normal cells” value ([1]; result in words)?
**A.** Its value is “low toxicity”.

**Q.** What does the source list for `COc1c(OC)c(O)c2c(=O)c3c(CC=C(C)C)c(CC=C(C)C)c(O)c(O)c3oc2c1CC=C(C)C` [Compound B]?
**A.** IC50 (MDA-MB-231): 70.5 µM; IC50 (HepG2; 72 h, read-out: Cytotoxicity Data IC50): 20.3 µM; IC50 (AGS): 31.1 µM; IC50 (U87): 55.3 µM

**Q.** For `CC(=O)O[C@H]1C(=O)[C@@]2(C)[C@H]([C@H](OC(=O)c3ccccc3)[C@]3(O)C[C@H](OC(=O)[C@H](O)[C@@H](NC(=O)c4ccccc4)c4ccccc4)C(C)=C1C3(C)C)[C@]1(OC(C)=O)CO[C@@H]1C[C@@H]2O` [Paclitaxel], which IC50 (AGS) is on record?
**A.** The IC50 was 23.1 µM.

**Q.** What about the IC50 (U87) of the same compound?
**A.** The IC50 was 285 µM.
